Test results from patent US9247744B2, “Ternary pesticidal mixtures” (BASF SE, priority 2006, dated 2016).

Tests used:
Format in all cases: in vivo
[1] = test system: boll weevil (Anthonomus grandis); test: control of boll weevil, insect diet with eggs, 24-well microtiter plates; details: sprayed on insect diet, egg and larval mortality after 5 days
Procedure: (§1) The analysis of synergism or antagonism between the mixtures or compositions was determined using Colby's equation.
For evaluating control of boll weevil (Anthonomus grandis) the test unit consisted of 24-well-microtiter plates containing an insect diet and 20-30 A. grandis eggs.
(§2) The compounds or mixtures were formulated using a solution containing 75% water and 25% DMSO. Different concentrations of formulated compounds or mixtures were sprayed onto the insect diet at 20 μl, using a custom built micro atomizer, at two replications.
(§3) For experimental mixtures in these tests identical volumes of both mixing partners at the desired concentrations respectively, were mixed together.
After application, microtiter plates were incubated at 23±1° C., 50±5% RH for 5 days. Egg and larval mortality was then visually assessed.
In this test the compound 1-2, and prochloraz, pyraclostrobin, N-[2-(1,1,2,3,3,3-hexafluoropropoxy)-phenyl]-3-difluoromethyl-1-methyl-1H-pyrazole-4-carboxamide (compound 3.1), and N-(3′,4′,5′-trifluorobiphenyl-2-yl)-1-methyl-3-difluoromethyl-1H-pyrazole-4-carboxamide (compound 3.2), resp., were used.

[2] = test system: tobacco budworm (Heliothis virescens); test: control of tobacco budworm, insect diet with eggs, 96-well microtiter plates; details: sprayed on insect diet, egg and larval mortality after 5 days
Procedure: as §1
as §2, with “For evaluating control of tobacco budworm (Heliothis virescens) the test unit consisted of 96-well-microtiter plates containing an insect diet and 15-25 H. virescens eggs. The” for “The”, “10” for “20”
as §3
After application, microtiter plates were incubated at 28±1° C., 80±5% RH for 5 days. Egg and larval mortality was then visually assessed.
In this test the compound I-2, and prochloraz, and pyraclostrobin, resp., were used.

[3] = test system: green peach aphid (Myzus persicae); test: control of green peach aphid through systemic means, artificial diet under membrane; details: pipetted into aphid diet, mortality and fecundity after 3 days
Procedure: as §1
For evaluating control of green peach aphid (Myzus persicae) through systemic means the test unit consisted of 96-well-microtiter plates containing liquid artificial diet under an artificial membrane.
The compounds or mixtures were formulated using a solution containing 75% water and 25% DMSO. Different concentrations of formulated compounds or mixtures were pipetted into the aphid diet, using a custom built pipetter, at two replications.
as §3
After application, 5-8 adult aphids were placed on the artificial membrane inside the microtiter plate wells. The aphids were then allowed to suck on the treated aphid diet and incubated at 23±1° C., 50±5% RH for 3 days. Aphid mortality and fecundity was then visually assessed.
In this test the compound 1-2, and orysastrobin, and 5-chloro-7-(4-methylpiperidin-1-yl)-6-(2,4,6-trifluorophenyl)-[1,2,4]triazolo[1,5-a]pyrimidine (compound 2.2), and N-[2-(1,1,2,3,3,3-hexafluoropropoxy)-phenyl]-3-difluoromethyl-1-methyl-1H-pyrazole-4-carboxamide (compound 3.1), were used.

[4] = test system: vetch aphid (Megoura viciae); test: control of vetch aphid on broad bean leaf disks, 24-well microtiter plates; details: sprayed on leaf disks, mortality and fecundity after 5 days
Procedure: as §1
For evaluating control of vetch aphid (Megoura viciae) through contact or systemic means the test unit consisted of 24-well-microtiter plates containing broad bean leaf disks.
The compounds or mixtures were formulated using a solution containing 75% water and 25% DMSO. Different concentrations of formulated compounds or mixtures were sprayed onto the leaf disks at 2.5 μl, using a custom built micro atomizer, at two replications.
as §3
After application, the leaf disks were air-dried and 5-8 adult aphids placed on the leaf disks inside the microtiter plate wells. The aphids were then allowed to suck on the treated leaf disks and incubated at 23±1° C., 50±5% RH for 5 days. Aphid mortality and fecundity was then visually assessed.
In this test the compound 1-2, and N-(3′,4′-dichloro-5-fluorobiphenyl-2-yl)-3-difluoromethyl-1-methylpyrazole-4-carboxamide (compound 2.1) and 5-chloro-7-(4-methyl-piperidin-1-yl)-6-(2,4,6-trifluorophenyl)-[1,2,4]triazolo[1,5-a]pyrimidine (compound 2.2) were used.

COC(=O)N(OC)c1ccccc1COc1ccn(-c2ccc(Cl)cc2)n1 [pyraclostrobin, methyl N-{2-[1-(4-chlorophenyl)-1/pyrazol-3-yloxymethyl]phenyl}(N-methoxy)carbamate]
Average Control % ([1]; 40 ppm): 0% | Average Control % ([2]; 200 ppm): 0% | Average Control % ([3]; 8 ppm): 0%

Cn1cc(C(=O)Nc2ccc(F)cc2-c2ccc(Cl)c(Cl)c2)c(C(F)F)n1 [compound 2.1, N-(3′,4′-dichloro-5-fluorobiphenyl-2-yl)-3-difluoromethyl-1-methylpyrazole-4-carboxamide]
Average Control % ([4]; 1000 ppm): 0%

CNC(=O)c1cc(C#N)cc(C)c1NC(=O)c1cc(Br)nn1-c1ncccc1Cl [I-2]
Average Control % ([4]; 0.5 ppm): 0% | Average Control % ([4]; 2.5 ppm): 0% | Average Control % ([1]; 0.5 ppm): 0% | Average Control % ([2]; 0.5 ppm): 0% | Average Control % ([2]; 2.5 ppm): 37.5% | Average Control % ([3]; 0.5 ppm): 0%

Cn1cc(C(=O)Nc2ccccc2-c2cc(F)c(F)c(F)c2)c(C(F)F)n1 [compound 3.2, N-(3′,4′,5′-trifluorobiphenyl-2-yl)-1-methyl-3-difluoromethyl-1H-pyrazole-4-carboxamide]
Average Control % ([1]; 200 ppm): 0%

CNC(=O)/C(=N/OC)c1ccccc1CO/N=C(C)/C(=N/OC)C(/C)=N/OC [orysastrobin, (2E)-2-(methoxyimino)-2-{2-[(3E,5E,6E)-5-(methoxyimino)-4,6-dimethyl-2,8-dioxa-3,7-diazanona-3,6-dien-1-yl]phenyl}-N-methylacetamide]
Average Control % ([3]; 40 ppm): 0%
